ChEMBL document CHEMBL1133048, “A QSAR study investigating the effect of L-alanine ester variation on the anti-HIV activity of some phosphoramidate derivatives of d4T” (2000)

Key:
CCRF-CEM [1] = assay: Effective concentration required to inhibit 50% of HIV-1 induced giant cell formation in CEM cell cultures; format: functional, Homo sapiens
CCRF-CEM [2] = assay: Effective concentration required to inhibit 50% of HIV-2 induced giant cell formation in CEM cell cultures; format: functional, Homo sapiens
CCRF-CEM [3] = assay: Cytotoxic concentration required to inhibit CEM cell proliferation by 50%; format: functional; conditions: Homo sapiens

Row | SMILES | Log 1/EC50 (CCRF-CEM [1]) | Log 1/EC50 (CCRF-CEM [2]) | CC50 (CCRF-CEM [3]) [µM]
1 | COC(=O)C(C)NP(=O)(OC[C@@H]1C=C[C@H](n2cc(C)c(=O)[nH]c2=O)O1)Oc1ccccc1 (stereo partly drawn) | 1.13 | 1.13 | 100
2 | Cc1cn(C2C=CC(COP(=O)(NC(C)C(=O)Oc3ccccc3)Oc3ccccc3)O2)c(=O)[nH]c1=O (stereo not drawn) | 1.6 | 1.1 | –
3 | Cc1cn(C2C=CC(COP(=O)(NC(C)C(=O)OCC3CCCCC3)Oc3ccccc3)O2)c(=O)[nH]c1=O (stereo not drawn) | 1.4 | – | 12.1
4 | Cc1cn(C2C=CC(COP(=O)(NC(C)C(=O)OC3CCCCC3)Oc3ccccc3)O2)c(=O)[nH]c1=O (stereo not drawn) | 1.19 | 1.13 | 51.4
5 | Cc1cn(C2C=CC(COP(=O)(NC(C)C(=O)OCc3cccc4ccccc34)Oc3ccccc3)O2)c(=O)[nH]c1=O (stereo not drawn) | 1.52 | 1.22 | 21.6
6 | CCCCOC(=O)C(C)NP(=O)(OCC1C=CC(n2cc(C)c(=O)[nH]c2=O)O1)Oc1ccccc1 (stereo not drawn) | – | – | 60
7 | Cc1cn(C2C=CC(COP(=O)(NC(C)C(=O)OCCc3ccccc3)Oc3ccccc3)O2)c(=O)[nH]c1=O (stereo not drawn) | 0.071 | 0.155 | 250
8 | Cc1cn(C2C=CC(COP(=O)(NC(C)C(=O)OCCCc3ccccc3)Oc3ccccc3)O2)c(=O)[nH]c1=O (stereo not drawn) | 0 | -0.217 | 250
9 | Cc1cn(C2C=CC(COP(=O)(NC(C)C(=O)OC(C)(C)C)Oc3ccccc3)O2)c(=O)[nH]c1=O (stereo not drawn) | 0.071 | -0.041 | 250

Continued, in another order:

Row | Log 1/EC50 (CCRF-CEM [1]) | Log 1/EC50 (CCRF-CEM [2]) | SMILES | CC50 (CCRF-CEM [3]) [µM]
10 | 1.22 | 1.26 | CCCCCCOC(=O)C(C)NP(=O)(OCC1C=CC(n2cc(C)c(=O)[nH]c2=O)O1)Oc1ccccc1 (stereo not drawn) | 48
11 | 1.3 | 1.35 | Cc1cn(C2C=CC(COP(=O)(NC(C)C(=O)OCC(C)(C)C)Oc3ccccc3)O2)c(=O)[nH]c1=O (stereo not drawn) | 43.5
12 | 1.35 | 1.1 | CCCCCOC(=O)C(C)NP(=O)(OCC1C=CC(n2cc(C)c(=O)[nH]c2=O)O1)Oc1ccccc1 (stereo not drawn) | 40.5
13 | 1.33 | 1.1 | CCCOC(=O)C(C)NP(=O)(OCC1C=CC(n2cc(C)c(=O)[nH]c2=O)O1)Oc1ccccc1 (stereo not drawn) | 40
14 | 1 | 1.16 | CCOC(=O)C(C)NP(=O)(OCC1C=CC(n2cc(C)c(=O)[nH]c2=O)O1)Oc1ccccc1 (stereo not drawn) | 55
